Data set [1] concerns MM473. As to the kind of experiment: Induction of cell cycle arrest in human MM473-Luc cells assessed as accumulation of cells at sub-G1 phase at 1.4 uM after 72 hrs by flow cytometry (reference value: 1.3%). In kind it is functional. (In general: In flow cytometry, cells or beads pass a laser one at a time.)
Data set [2] can be described thus: Toxicity in mouse xenografted with human H460-R9A cells assessed as body weight loss at 50 mg/kg, po qd administered 5 times a week for 3 to 4 weeks in combination with cisplatin at 4 mg/kg, iv administered every 7 days for 4 weeks. In kind it is organism-based. The conditions noted are these: in vivo, time 3-4 weeks. Background: A xenograft is tissue or cells of one species grown in another, often human tumour cells in immunodeficient mice.

For data set [3], the system named is Mus musculus. The data set can be described thus: Inhibition of POLA1 in mouse B16 cells xenografted C57BL/6 mouse assessed as increase in IFN-alpha levels at 50 mg/kg, po administered twice a day for 5 days measured by ELISA assay. In kind it is functional, organism-based. The conditions noted are these: time 5.0 day. On the technique in general: An ELISA detects its analyte on a solid surface through an enzyme-linked reagent.

Data set [4] relates to MM473. As to the kind of experiment: Antitumor activity against human MM473 cells xenografted in mouse assessed as tumor growth inhibition at 50 mg/kg, po bid administered 5 times a week for 3 weeks. In kind it is functional. The note with it: MM473, 504 h, read-out: TGI.
Data set [5] can be described thus: Induction of cell cycle arrest in human H460-R9A cells assessed as accumulation of cells at G0/1 phase at 2.2 uM after 72 hrs by flow cytometry (reference value: 50.1%). Type of data set: functional.
Data set [6] deals with NCI-H460. As to the kind of experiment: Induction of cell cycle arrest in human NCI-H460 cells assessed as accumulation of cells at G2/M phase at 0.12 uM after 72 hrs by flow cytometry (reference value: 21.1%). In kind it is functional.
In data set [7] the test system is H460-R9A. The data set can be described thus: Antiproliferative activity against human H460-R9A cells at 0.75 to 12 uM after 72 hrs by MTT assay. In kind it is functional, cell-based. The conditions noted are these: dose 0.75-12 µM.

SMILES strings stand for the structures. Calls of active or inactive are those of the source. No cut-off for these calls is given here.

Take `CC(Oc1ccc(-c2ccc(C=CC(=O)O)cc2)cc1C12CC3CC(CC(C3)C1)C2)C(=O)NO` (configuration not stated): the Activity in data set [1] worked out at 10.2%.
Consider `O=C(O)C=Cc1ccc(-c2ccc(OCC(=O)NO)c(C34CC5CC(CC(C5)C3)C4)c2)cc1`, for which, in data set [2], the Activity is given as 0%. For the same molecule, the inhibition entry in data set [3] is “Active”. Also, the inhibition in vivo at 50 mg/kg in data set [4] is 77%.
Regarding `O=C(O)C=Cc1ccc(-c2ccc(O)c(C34CC5CC(CC(C5)C3)C4)c2)cc1`, the Activity in data set [5] turned out to be 22.8%; in data set [6], 6.5%. Also, in data set [7], the result was Active.
